Measured values reported in publication PMC4696607 (ACS infectious diseases, 2015).

Legend:
DENV-2 = test: microbe, parasite or virus in culture; format: cell-based, Dengue virus (DENV-2); conditions: Dengue virus, DENV2, A549, 42 h
WNV MTase [1] = target: T1, WNV MTase (West Nile virus, UniProt Q9Q6P4); test: N7 methylation inhibition assay, WNV MTase; conditions: for IC50: WNV MTase
DENV3MTase = DENV3MTase (Dengue virus type 3, UniProt Q6YMS4); test: Competitive SAM binding assay
VSV = format: cell-based
WNV MTase [2] = target: T1, WNV MTase; test: 2′-O methylation inhibition assay, WNV MTase
SLEV = test: organism not typed; format: cell-based, St. Louis encephalitis viruses (SLEV); conditions: A549, 42 h
[3] = tested on: herpes simplex virus (HSV)-1; conditions: cited from earlier work
JEV = test: microbe, parasite or virus in culture; format: cell-based, Japanese encephalitis virus (JEV); conditions: Japanese encephalitis virus, A549, 42 h
WEEV = format: cell-based
[4] = cited from earlier work
[5] = tested on: anthrax lethal factor (LF); conditions: cited from earlier work
WNV = test: microbe, parasite or virus in culture; format: cell-based, West Nile virus (WNV); conditions: West Nile virus, 42 h
BHK-21 cells = test: MTT cell proliferation cytotoxicity assay, BHK-21; format: cell-based; conditions: for CC50 relative to IC50 (fold higher): BHK-21 CC50 vs in vitro IC50; for CC50: BHK-21 cells, MTT, 42 h
[6] = IC50 N7, with CHAPS, with CHAPS
[7] = read-out: IC50 N7, no CHAPS, no CHAPS
[8] = read-out: IC50 2′-O, with CHAPS, WNV MTase, with CHAPS

T1 sequence (Q9Q6P4 2529-2794): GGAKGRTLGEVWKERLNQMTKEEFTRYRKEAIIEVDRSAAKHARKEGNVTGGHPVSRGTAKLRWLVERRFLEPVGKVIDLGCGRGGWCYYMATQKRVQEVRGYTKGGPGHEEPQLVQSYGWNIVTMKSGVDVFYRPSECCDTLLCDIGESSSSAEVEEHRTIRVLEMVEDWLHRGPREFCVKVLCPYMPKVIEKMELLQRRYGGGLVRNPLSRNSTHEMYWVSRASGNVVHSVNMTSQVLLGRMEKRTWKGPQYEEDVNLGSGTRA
DENV3MTase, sequence (Q6YMS4 2492-2753): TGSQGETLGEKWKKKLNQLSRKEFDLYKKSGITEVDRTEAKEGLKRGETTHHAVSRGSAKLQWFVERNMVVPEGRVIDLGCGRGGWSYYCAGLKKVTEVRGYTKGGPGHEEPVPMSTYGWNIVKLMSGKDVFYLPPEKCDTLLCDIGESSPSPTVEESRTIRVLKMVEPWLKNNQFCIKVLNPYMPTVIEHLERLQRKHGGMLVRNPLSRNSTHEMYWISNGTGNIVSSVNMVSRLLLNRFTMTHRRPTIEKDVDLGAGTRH

`Cc1cc(N)c2cc(NC(=O)Nc3ccc4nc(C)cc(N)c4c3)ccc2n1` [NSC 12155, aminoquinuride] gave an EC50 (DENV-2) of 7 µM, an IC50 (WNV MTase [1]; IC50 N7, no CHAPS, no CHAPS) of 1.4 µM and an IC50 (WNV MTase [1]; [6]) of 0.87 µM. For the same compound, the IC50 (DENV3MTase) was 1.2 µM, the “inhibition of virus growth” value (VSV) was “did not inhibit” and the IC50 (WNV MTase [2]) was 3 µM. The EC50 (SLEV) was 5.1 µM, the “cell adhesion by HSV-1” value [3] was “prevent cell adhesion” and the EC50 (JEV) was 3.1 µM. The “inhibition of virus growth” value (WEEV) was “did not inhibit”, the binding to glycosaminoglycans [4] was “bind to glycosaminoglycans” and the “anthrax lethal factor (LF) activity” value [5] was “inhibited”. The EC50 (WNV) was 1 µM and the “CC50 relative to IC50 (fold higher)” value (BHK-21 cells) was 20 fold.
For `S=C(Nc1ccc2c(c1)Cc1ccccc1-2)Nc1ccc2c(c1)Cc1ccccc1-2` [NSC 23217], the IC50 (WNV MTase [1]; IC50 N7, no CHAPS, no CHAPS) was 15.7 µM, the IC50 (WNV MTase [1]; [6]) was > 300 µM and the IC50 (WNV MTase [2]) was 7.4 µM.
In the case of `Nc1ccc(-c2ccc(Nc3cc(S(=O)(=O)O)c(N)c4c3C(=O)c3ccccc3C4=O)cc2)c(S(=O)(=O)O)c1` [NSC 125910], the IC50 (WNV MTase [1]; IC50 N7, no CHAPS, no CHAPS) is reported as 7.6 µM, the IC50 (WNV MTase [1]; [6]) is reported as 17.6 µM and the IC50 (WNV MTase [2]) is reported as 3.2 µM. The EC50 (WNV) was 2.6 µM and the “CC50 relative to IC50 (fold higher)” value (BHK-21 cells) was 20 fold.
`CC1OC(CC(=O)O)Cc2c1c(O)c1c(O)cc(-c3cc(=O)c4c(=O)c5c(c(=O)c=4c3=O)CC(CC(=O)O)OC5C)c(O)c1c2O` (stereo not shown) [NSC 293161] gave an IC50 (WNV MTase [1]; [7]) of 13.2 µM, an IC50 (WNV MTase [1]; read-out: IC50 N7, with CHAPS, with CHAPS) of 31 µM and an IC50 (WNV MTase [2]; [8]) of 54.6 µM. The CC50 (BHK-21 cells) was 25 µM.
Work on `Nc1nc(-c2cccc([N+](=O)[O-])c2)cc(-c2cc(-c3cccc([N+](=O)[O-])c3)nc(N)n2)n1` [NSC 371880] yielded an IC50 (WNV MTase [1]; [7]) of 63 µM, an IC50 (WNV MTase [2]; [8]) of 72 µM and a CC50 (BHK-21 cells) of 212 µM.
For `O=C1C2=C(Nc3cc([N+](=O)[O-])ccc3N2)OC1c1ccc(C2OC3=C(Nc4ccc([N+](=O)[O-])cc4N3)C2=O)cc1` (stereo not shown) [NSC 372295], the IC50 (WNV MTase [1]; [7]) was 62 µM, the IC50 (WNV MTase [2]; [8]) was 57 µM and the CC50 (BHK-21 cells) was 126 µM.
For `Nc1ncnc2c1ncn2[C@@H]1O[C@H](C[C@@H](N)CC[C@H](N)C(=O)O)[C@@H](O)[C@H]1O` [SIN, sinefungin, reference compound], the “effect of CHAPS on inhibition activity” value (WNV MTase [1]; N7 inhibition with detergent CHAPS) was “not affected at all” and the inhibition at 150 µM (WNV MTase [1]; read-out: inhibition of N7 activity of the WNV MTase) was ~80%.
